Data: paper PMC11003488 (Journal of Enzyme Inhibition and Medicinal Chemistry, 2023)

Tests used:
Assay type in all cases: cell-based
[1] = tested on: IGROV1; assay: NCI-60 SRB growth inhibition, one-dose and five-dose; conditions: Homo sapiens, IGROV-1, read-out: percent growth inhibition
[2] = tested on: HL-60(TB); assay: cells; conditions: Homo sapiens, HL-60, read-out: percent growth inhibition
[3] = tested on: SF-539; assay: NCI-60 SRB growth inhibition, one-dose and five-dose; conditions: Homo sapiens, SF-539, read-out: percent growth inhibition
[4] = tested on: KM12; assay: as above; conditions: Homo sapiens, KM12, read-out: percent growth inhibition
[5] = tested on: SN12C; assay: as above; conditions: Homo sapiens, read-out: percent growth inhibition
[6] = tested on: HS 578 T; assay: as above; conditions: Homo sapiens, read-out: percent growth inhibition
[7] = tested on: HCC-2998; assay: as above; conditions: Homo sapiens, HCC 2998, read-out: percent growth inhibition
[8] = tested on: PC-3; assay: as above; conditions: Homo sapiens, PC-3, read-out: percent growth inhibition
[9] = tested on: TK-10; assay: as above; conditions: Homo sapiens, TK-10, read-out: percent growth inhibition
[10] = tested on: UACC-62; assay: as above; conditions: Homo sapiens, UACC-62, read-out: percent growth inhibition
[11] = tested on: RPMI-8226; assay: as above; conditions: Homo sapiens, RPMI-8226, read-out: percent growth inhibition
[12] = tested on: MDA-MB-435; assay: as above; conditions: Homo sapiens, MDA-MB-435, read-out: percent growth inhibition
[13] = tested on: HCT-116; assay: as above; conditions: Homo sapiens, HCT-116, read-out: percent growth inhibition
[14] = tested on: NCI-H226; assay: as above; conditions: Homo sapiens, NCI-H226, read-out: percent growth inhibition
[15] = tested on: ACHN; assay: as above; conditions: Homo sapiens, read-out: percent growth inhibition
[16] = tested on: OVCAR-8; assay: as above; conditions: Homo sapiens, OVCAR-8, read-out: percent growth inhibition
[17] = tested on: HOP-62; assay: as above; conditions: Homo sapiens, HOP-62, read-out: percent growth inhibition

Row | SMILES | inhibition at 10 µM [1] [%] | inhibition at 10 µM [2] [%] | inhibition at 10 µM [3] [%] | inhibition at 10 µM [4] [%] | inhibition at 10 µM [5] [%] | inhibition at 10 µM [6] [%] | inhibition at 10 µM [7] [%] | inhibition at 10 µM [8] [%] | inhibition at 10 µM [9] [%] | inhibition at 10 µM [10] [%] | inhibition at 10 µM [11] [%] | inhibition at 10 µM [12] [%] | inhibition at 10 µM [13] [%] | inhibition at 10 µM [14] [%] | inhibition at 10 µM [15] [%] | inhibition at 10 µM [16] [%] | inhibition at 10 µM [17] [%]
1 | CC(=O)Nc1ccc(CNc2cccc(C(=O)/C=C/c3c[nH]cn3)c2)cc1 [Compound 5l, (E)-N-(4-(((3–(3-(1H-imidazol-4-yl)acryloyl)phenyl)amino)methyl)phenyl)acetamide] | 8.09 | 65.2 | 14.1 | 43.6 | 19.8 | 7.6 | -2.31 | 7.64 | 12.9 | 34 | 38 | 11 | 29.4 | 21.7 | 15.4 | 8.86 | 5.06
2 | O=C(/C=C/c1c[nH]cn1)c1cccc(NCc2ccc(CO)cc2)c1 [Compound 5m, (E)-1–(3-((4-(hydroxymethyl)benzyl)amino)phenyl)-3-(1H-imidazol-4-yl)prop-2-en-1-one] | 9.93 | 65.9 | 11 | 9.57 | 19.9 | 4.31 | -0.68 | 11.3 | 6.96 | 30.5 | 63.3 | 8.36 | 36.5 | 14.6 | 16.6 | 15.4 | 13.9
3 | O=C(/C=C/c1c[nH]cn1)c1cccc(NCc2ccc3oc(=O)ccc3c2)c1 [Compound 5n, (E)-6-(((3–(3-(1H-imidazol-4-yl)acryloyl)phenyl)amino)methyl)-2H-chromen-2-one] | 16.6 | 85.4 | 14.8 | 25.1 | 29.8 | 13.6 | 16.8 | 17.1 | 30 | 45.2 | 86.9 | 14.5 | 58.1 | 28.2 | 24.8 | 32.5 | 24.3
